ChEMBL document CHEMBL3045434, “Synthesis, characterization, and biological evaluation of novel thiazole and pyrazole derivatives of quinoline-4-carboxylic acid as potential antimicrobial agents” (2013)
Values after ≈ are worked out from the molar mass of the structure shown.

Assays:
Format in all cases: functional
Aspergillus niger [1] = assay: Antifungal activity against Aspergillus niger MTCC 872 by disc diffusion method
Aspergillus fumigatus [2] = assay: Antifungal activity against Aspergillus fumigatus MTCC 343 by disk diffusion method
Candida albicans [3] = assay: Antifungal activity against Candida albicans ATCC 24433 by disk diffusion method
Pseudomonas aeruginosa [4] = assay: Antibacterial activity against Pseudomonas aeruginosa ATCC 25615 by disc diffusion method
Escherichia coli [5] = assay: Antibacterial activity against Escherichia coli MTCC 739 by disc diffusion method
Bacillus subtilis [6] = assay: Antibacterial activity against Bacillus subtilis ATCC 6633 by disk diffusion method
Staphylococcus aureus [7] = assay: Antibacterial activity against Staphylococcus aureus ATCC 9144 by disk diffusion method
Aspergillus niger [8] = assay: Antifungal activity against Aspergillus niger MTCC 872 by two-fold serial dilution method
Aspergillus fumigatus [9] = assay: Antifungal activity against Aspergillus fumigatus MTCC 343 by two-fold serial dilution method
Candida albicans [10] = assay: Antifungal activity against Candida albicans ATCC 24433 by two-fold serial dilution method
Pseudomonas aeruginosa [11] = assay: Antibacterial activity against Pseudomonas aeruginosa ATCC 25615 by two-fold serial dilution method
Escherichia coli [12] = assay: Antibacterial activity against Escherichia coli MTCC 739 by two-fold serial dilution method
Bacillus subtilis [13] = assay: Antibacterial activity against Bacillus subtilis ATCC 6633 by two-fold serial dilution method
Staphylococcus aureus [14] = assay: Antibacterial activity against Staphylococcus aureus ATCC 9144 by two-fold serial dilution method

| Compound | diameter of the inhibition zone (DIZ) (Aspergillus niger [1]) [mm] | diameter of the inhibition zone (DIZ) (Aspergillus fumigatus [2]) [mm] | diameter of the inhibition zone (DIZ) (Candida albicans [3]) [mm] | diameter of the inhibition zone (DIZ) (Pseudomonas aeruginosa [4]) [mm] | diameter of the inhibition zone (DIZ) (Escherichia coli [5]) [mm] | diameter of the inhibition zone (DIZ) (Bacillus subtilis [6]) [mm] | diameter of the inhibition zone (DIZ) (Staphylococcus aureus [7]) [mm] | MIC (Aspergillus niger [8]) [µg/mL] | MIC (Aspergillus fumigatus [9]) [µg/mL] | MIC (Candida albicans [10]) [µg/mL] | MIC (Pseudomonas aeruginosa [11]) [µg/mL] | MIC (Escherichia coli [12]) [µg/mL] | MIC (Bacillus subtilis [13]) [µg/mL] | MIC (Staphylococcus aureus [14]) [µg/mL] | inhibition zone (IZ) (Aspergillus niger [1]) [mm] | inhibition zone (IZ) (Pseudomonas aeruginosa [4]) [mm] | inhibition zone (IZ) (Escherichia coli [5]) [mm] | inhibition zone (IZ) (Bacillus subtilis [6]) [mm] | inhibition zone (IZ) (Staphylococcus aureus [7]) [mm] |
| --- | --- | --- | --- | --- | --- | --- | --- | --- | --- | --- | --- | --- | --- | --- | --- | --- | --- | --- | --- |
| S=c1[nH]nc2c3c(c(-c4ccccc4)nc4ccccc43)c(-c3ccccc3)c(-c3ccccc3)n12 | 6 | 7 | 8 | 8 | 18 | 21 | 8 | > 100 | > 100 | > 100 | > 100 | 50 (≈ 104 µM) | 12.5 (≈ 26 µM) | > 100 | – | – | – | – | – |
| O=C(O)c1cc(-c2ccccc2)[n+](C/C(=N/N=C2/N=C(c3ccccc3)CS2)c2ccccc2)c2ccccc12.[I-] | 14 | 12 | 10 | 9 | 9 | 10 | 18 | 12.5 | 25 | > 50 | > 100 | > 100 | > 100 | 25 | – | – | – | – | – |
| O=C(O)c1cc(-c2ccc(Cl)cc2)[n+](C/C(=N/N=C2/N=C(c3ccccc3)CS2)c2ccccc2)c2ccccc12.[I-] | 6 | 6 | 19 | 6 | 6 | 6 | 15 | > 100 | > 100 | 12.5 | > 100 | > 100 | > 100 | 25 | – | – | – | – | – |
| S=c1[nH]nc2c3c(c(-c4ccc(Cl)cc4)nc4ccccc43)c(-c3ccccc3)c(-c3ccccc3)n12 | 6 | 6 | 18 | 13 | 7 | 8 | 20 | > 100 | > 100 | 25 (≈ 48.5 µM) | 50 (≈ 97.1 µM) | > 100 | > 100 | 12.5 (≈ 24.3 µM) | – | – | – | – | – |
| O=c1[nH]nc2c3c(c(-c4ccccc4)nc4ccccc43)c(-c3ccccc3)c(-c3ccccc3)n12 | 6 | 12 | 6 | 12 | 21 | 8 | 8 | > 100 | 25 (≈ 53.8 µM) | > 100 | 50 (≈ 108 µM) | 25 (≈ 53.8 µM) | > 100 | > 100 | – | – | – | – | – |
| O=c1[nH]nc2c3c(c(-c4ccc(Cl)cc4)nc4ccccc43)c(-c3ccccc3)c(-c3ccccc3)n12 | 8 | 6 | 24 | 6 | 6 | 11 | 9 | > 100 | > 100 | 12.5 (≈ 25.1 µM) | > 100 | > 100 | > 100 | > 100 | – | – | – | – | – |
| Nc1ccc(C2=N/C(=N/N=C(/C[n+]3c(-c4ccccc4)cc(C(=O)O)c4ccccc43)c3ccccc3)SC2)cc1.[I-] | 7 | 6 | 36 | 9 | 8 | 9 | 24 | > 100 | > 100 | 3.12 | > 100 | > 100 | > 100 | 6.25 | – | – | – | – | – |
| Cc1ccc(-c2cc(C(=O)O)c3ccccc3[n+]2C/C(=N/N=C2/N=C(c3ccc(N)cc3)CS2)c2ccccc2)cc1.[I-] | 8 | 10 | 40 | 6 | 6 | 6 | 40 | > 100 | > 50 | 3.12 | > 100 | > 100 | > 100 | 3.12 | – | – | – | – | – |
| Cc1ccc(-c2nc3ccccc3c3c2c(-c2ccccc2)c(-c2ccccc2)n2c(=O)[nH]nc32)cc1 | 6 | 9 | 14 | 9 | 6 | 18 | 11 | > 100 | > 100 | 50 (≈ 104 µM) | > 100 | > 100 | 50 (≈ 104 µM) | 50 (≈ 104 µM) | – | – | – | – | – |
| GENTAMICIN | – | – | – | – | – | – | – | – | – | – | – | 25 | – | 6.25 | 18 | 23 | 20 | 22 | 22 |
| Cc1ccc(-c2cc(C(=O)O)c3ccccc3[n+]2C/C(=N/N=C2/N=C(c3ccccc3)CS2)c2ccccc2)cc1.[I-] | 7 | 8 | 17 | 8 | 11 | 9 | 14 | > 100 | > 100 | 25 | > 100 | > 100 | > 100 | 25 | – | – | – | – | – |
| Cc1ccc(-c2nc3ccccc3c3c2c(-c2ccccc2)c(-c2ccccc2)n2c(=S)[nH]nc32)cc1 | 7 | 6 | 6 | 6 | 6 | 19 | 6 | > 100 | > 100 | > 100 | > 100 | > 100 | 25 (≈ 50.5 µM) | > 100 | – | – | – | – | – |
| Nc1ccc(C2=N/C(=N/N=C(/C[n+]3c(-c4ccc(Cl)cc4)cc(C(=O)O)c4ccccc43)c3ccccc3)SC2)cc1.[I-] | 6 | 9 | 7 | 8 | 7 | 7 | 34 | > 100 | > 100 | > 100 | > 100 | > 100 | > 100 | 3.12 | – | – | – | – | – |
| OC(Cn1cncn1)(Cn1cncn1)c1ccc(F)cc1F [FLUCONAZOLE] | – | – | 21 | – | – | – | – | – | – | 6.25 (≈ 20.4 µM) | – | – | – | – | – | – | – | – | – |
